In PubChem BioAssay AID1963978 (Molecular Pharmacology Branch, DTP, NCI, 2024):

Tested on: 616215-338-R-J1-PDC spheroids with HUVEC/MSC, viability
Experiment: Anticancer human tumor 616215-338-R-J1-PDC patient-derived colon adenocarcinoma cell line growth inhibition [PI3K]
Settings: for IC50: curve of first compound; for viability, T/C: stronger effect = lower value
Method in brief: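 Complex 3D spheroids (cancer cells + endothelial HUVEC + mesenchymal stem cells); drug pairs of targeted agent x inavolisib/alpelisib/duvelisib/copanlisib; half-log series from ~Cmax, max 10 microM if Cmax unknown; endpoint viability.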

[1] = second compound 0.0316 µM, first compound 0.0316 µM
[2] = second compound 0.0316 µM, first compound 0.1 µM
[3] = second compound 0.0316 µM, first compound 0.316 µM
[4] = second compound 0.0316 µM, first compound 1 µM
[5] = second compound 0.0316 µM, first compound 3.16 µM
[6] = second compound 0.0316 µM, first compound 10 µM
[7] = second compound 0.1 µM, first compound 0.0316 µM
[8] = second compound 0.1 µM, first compound 0.1 µM
[9] = second compound 0.1 µM, first compound 0.316 µM
[10] = second compound 0.1 µM, first compound 1 µM
[11] = second compound 0.1 µM, first compound 3.16 µM
[12] = second compound 0.1 µM, first compound 10 µM
[13] = second compound 0.316 µM, first compound 0.0316 µM
[14] = second compound 0.316 µM, first compound 0.1 µM
[15] = second compound 0.316 µM, first compound 0.316 µM
[16] = second compound 0.316 µM, first compound 1 µM
[17] = second compound 0.316 µM, first compound 3.16 µM
[18] = second compound 0.316 µM, first compound 10 µM
[19] = second compound 1 µM, first compound 0.0316 µM
[20] = second compound 1 µM, first compound 0.1 µM
[21] = second compound 1 µM, first compound 0.316 µM
[22] = second compound 1 µM, first compound 1 µM
[23] = second compound 1 µM, first compound 3.16 µM
[24] = second compound 1 µM, first compound 10 µM
[25] = second compound 3.16 µM, first compound 0.0316 µM
[26] = second compound 3.16 µM, first compound 0.1 µM
[27] = second compound 3.16 µM, first compound 0.316 µM
[28] = second compound 3.16 µM, first compound 1 µM
[29] = second compound 3.16 µM, first compound 3.16 µM
[30] = second compound 3.16 µM, first compound 10 µM
[31] = second compound 10 µM, first compound 0.0316 µM
[32] = second compound 10 µM, first compound 0.1 µM
[33] = second compound 10 µM, first compound 0.316 µM
[34] = second compound 10 µM, first compound 1 µM
[35] = second compound 10 µM, first compound 3.16 µM
[36] = second compound 10 µM, first compound 10 µM
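Note: spheroids exposed to agents for seven days before the viability read.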

Compound `CC(Cn1ccc(-c2ccc(C#N)c(Cl)c2)n1)NC(=O)c1cc(C(C)O)[nH]n1` (stereo unspecified) + COc1c(OCCCN2CCOCC2)ccc2c3n(c(=NC(=O)c4cnc(N)nc4)nc12)CCN3 has an IC50 (second compound 0.00316 µM) of over 10 µM, an IC50 (second compound 0.01 µM) of over 10 µM and an IC50 (second compound 0.0316 µM) of over 10 µM. For the same compound, the IC50 (second compound 0.1 µM) was over 10 µM, the IC50 (second compound 0.316 µM) was under 0.0316 µM and the IC50 (second compound 1 µM) was under 0.0316 µM. It also gave a viability, T/C (second compound 0.00316 µM, first compound 0.0316 µM) of 93.9%, a viability, T/C (second compound 0.00316 µM, first compound 0.1 µM) of 93.3% and a viability, T/C (second compound 0.00316 µM, first compound 0.316 µM) of 88.6%. It also gave a viability, T/C (second compound 0.00316 µM, first compound 1 µM) of 95.8%, a viability, T/C (second compound 0.00316 µM, first compound 3.16 µM) of 104% and a viability, T/C (second compound 0.00316 µM, first compound 10 µM) of 91.3%. It also gave a viability, T/C (second compound 0.01 µM, first compound 0.0316 µM) of 99.4%, a viability, T/C (second compound 0.01 µM, first compound 0.1 µM) of 86.7% and a viability, T/C (second compound 0.01 µM, first compound 0.316 µM) of 100%. It also gave a viability, T/C (second compound 0.01 µM, first compound 1 µM) of 90.8%, a viability, T/C (second compound 0.01 µM, first compound 3.16 µM) of 90.3% and a viability, T/C (second compound 0.01 µM, first compound 10 µM) of 86.2%. It also gave a viability, T/C [1] of 99.1%, a viability, T/C [2] of 102% and a viability, T/C [3] of 99.9%. The viability, T/C [4] was 109%, the viability, T/C [5] was 93.2% and the viability, T/C [6] was 84.2%. For the same compound, the viability, T/C [7] was 90.8%, the viability, T/C [8] was 91.4% and the viability, T/C [9] was 90.2%. The viability, T/C [10] was 96.8%, the viability, T/C [11] was 89.2% and the viability, T/C [12] was 83.4%. For the same compound, the viability, T/C [13] was 35.2%, the viability, T/C [14] was 34.7% and the viability, T/C [15] was 45.3%. For the same compound, the viability, T/C [16] was 33.5%, the viability, T/C [17] was 36% and the viability, T/C [18] was 28.5%. The viability, T/C [19] was 27.7%, the viability, T/C [20] was 17.2% and the viability, T/C [21] was 20.3%. For the same compound, the viability, T/C [22] was 24.8%, the viability, T/C [23] was 18.8% and the viability, T/C [24] was 17.8%.

With `CC(C)NCC(C(=O)N1CCN(c2ncnc3c2C(C)CC3O)CC1)c1ccc(Cl)cc1` (stereo unspecified) + Cc1nc(NC(=O)N2CCCC2C(N)=O)sc1-c1ccnc(C(C)(C)C(F)(F)F)c1 the IC50 (second compound 0.0316 µM) was 8.82 µM, the IC50 (second compound 0.1 µM) was 8.31 µM and the IC50 (second compound 0.316 µM) was 7.19 µM. It also gave an IC50 (second compound 1 µM) of 7.82 µM, an IC50 (second compound 3.16 µM) of 7.42 µM and an IC50 (second compound 10 µM) of 4.35 µM. For the same compound, the viability, T/C [1] was 97.2%, the viability, T/C [2] was 91.6% and the viability, T/C [3] was 91.8%. For the same compound, the viability, T/C [4] was 98.3%, the viability, T/C [5] was 91.8% and the viability, T/C [6] was 44.9%. The viability, T/C [7] was 89.5%, the viability, T/C [8] was 87.4% and the viability, T/C [9] was 92.8%. For the same compound, the viability, T/C [10] was 105%, the viability, T/C [11] was 90.1% and the viability, T/C [12] was 42%. The viability, T/C [13] was 103%, the viability, T/C [14] was 92.9% and the viability, T/C [15] was 98.7%. It also gave a viability, T/C [16] of 104%, a viability, T/C [17] of 70.8% and a viability, T/C [18] of 41.6%. The viability, T/C [19] was 98.9%, the viability, T/C [20] was 97.6% and the viability, T/C [21] was 95.6%. It also gave a viability, T/C [22] of 101%, a viability, T/C [23] of 84.9% and a viability, T/C [24] of 39.8%. The viability, T/C [25] was 111%, the viability, T/C [26] was 101% and the viability, T/C [27] was 102%. It also gave a viability, T/C [28] of 90.4%, a viability, T/C [29] of 71.4% and a viability, T/C [30] of 42.2%. The viability, T/C [31] was 96%, the viability, T/C [32] was 95.3% and the viability, T/C [33] was 91.6%. It also gave a viability, T/C [34] of 79.2%, a viability, T/C [35] of 57.8% and a viability, T/C [36] of 30.3%.

Compound `C[C@@H](NC(=O)c1ncnc(N)c1Cl)c1ncc(C(=O)Nc2cc(C(F)(F)F)c(Cl)cn2)s1` + CC(Nc1ncnc2nc[nH]c12)c1cc2cccc(Cl)c2c(=O)n1-c1ccccc1 has an IC50 (second compound 0.0316 µM) of over 10 µM, an IC50 (second compound 0.1 µM) of over 10 µM and an IC50 (second compound 0.316 µM) of over 10 µM. The IC50 (second compound 1 µM) was over 10 µM, the IC50 (second compound 3.16 µM) was over 10 µM and the IC50 (second compound 10 µM) was 9.7 µM. It also gave a viability, T/C [1] of 100%, a viability, T/C [2] of 115% and a viability, T/C [3] of 105%. It also gave a viability, T/C [4] of 105%, a viability, T/C [5] of 114% and a viability, T/C [6] of 88.5%. It also gave a viability, T/C [7] of 99.7%, a viability, T/C [8] of 101% and a viability, T/C [9] of 97%. It also gave a viability, T/C [10] of 118%, a viability, T/C [11] of 105% and a viability, T/C [12] of 90.5%. It also gave a viability, T/C [13] of 112%, a viability, T/C [14] of 105% and a viability, T/C [15] of 101%. The viability, T/C [16] was 110%, the viability, T/C [17] was 99% and the viability, T/C [18] was 74.6%. For the same compound, the viability, T/C [19] was 104%, the viability, T/C [20] was 106% and the viability, T/C [21] was 104%. It also gave a viability, T/C [22] of 96.6%, a viability, T/C [23] of 113% and a viability, T/C [24] of 64.8%. For the same compound, the viability, T/C [25] was 95.9%, the viability, T/C [26] was 103% and the viability, T/C [27] was 104%. It also gave a viability, T/C [28] of 98.4%, a viability, T/C [29] of 99.4% and a viability, T/C [30] of 67.2%. The viability, T/C [31] was 95.4%, the viability, T/C [32] was 113% and the viability, T/C [33] was 98.8%. The viability, T/C [34] was 98.5%, the viability, T/C [35] was 88.5% and the viability, T/C [36] was 48.4%.
